For orientation: inhibition means the change of the read-out against control, counted positive when it falls. The GI50 is the concentration that inhibits growth by half.

Experimental findings from patent US20250120967A1, “TYROSINE KINASES INHIBITORS AND USES THEREOF” (GREAT NOVEL THERAPEUTICS BIOTECH & MEDICALS CORPORATION, priority 2023, published 2025) are described below.

In one assay the test system is CT26 tumor. Description: Experimental tumor model and therapies, CT26 tumor-bearing mice.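 Also: male Balb/c mice bearing CT26 grafts in the back, treated once tumors reached roughly 250–300 mm^3, tumor volume measured twice weekly, response graded by fold growth after treatment end.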
The target in the next assay is T1, EPHB2 (Homo sapiens, UniProt P29323).
T1 sequence (P29323 19-1055): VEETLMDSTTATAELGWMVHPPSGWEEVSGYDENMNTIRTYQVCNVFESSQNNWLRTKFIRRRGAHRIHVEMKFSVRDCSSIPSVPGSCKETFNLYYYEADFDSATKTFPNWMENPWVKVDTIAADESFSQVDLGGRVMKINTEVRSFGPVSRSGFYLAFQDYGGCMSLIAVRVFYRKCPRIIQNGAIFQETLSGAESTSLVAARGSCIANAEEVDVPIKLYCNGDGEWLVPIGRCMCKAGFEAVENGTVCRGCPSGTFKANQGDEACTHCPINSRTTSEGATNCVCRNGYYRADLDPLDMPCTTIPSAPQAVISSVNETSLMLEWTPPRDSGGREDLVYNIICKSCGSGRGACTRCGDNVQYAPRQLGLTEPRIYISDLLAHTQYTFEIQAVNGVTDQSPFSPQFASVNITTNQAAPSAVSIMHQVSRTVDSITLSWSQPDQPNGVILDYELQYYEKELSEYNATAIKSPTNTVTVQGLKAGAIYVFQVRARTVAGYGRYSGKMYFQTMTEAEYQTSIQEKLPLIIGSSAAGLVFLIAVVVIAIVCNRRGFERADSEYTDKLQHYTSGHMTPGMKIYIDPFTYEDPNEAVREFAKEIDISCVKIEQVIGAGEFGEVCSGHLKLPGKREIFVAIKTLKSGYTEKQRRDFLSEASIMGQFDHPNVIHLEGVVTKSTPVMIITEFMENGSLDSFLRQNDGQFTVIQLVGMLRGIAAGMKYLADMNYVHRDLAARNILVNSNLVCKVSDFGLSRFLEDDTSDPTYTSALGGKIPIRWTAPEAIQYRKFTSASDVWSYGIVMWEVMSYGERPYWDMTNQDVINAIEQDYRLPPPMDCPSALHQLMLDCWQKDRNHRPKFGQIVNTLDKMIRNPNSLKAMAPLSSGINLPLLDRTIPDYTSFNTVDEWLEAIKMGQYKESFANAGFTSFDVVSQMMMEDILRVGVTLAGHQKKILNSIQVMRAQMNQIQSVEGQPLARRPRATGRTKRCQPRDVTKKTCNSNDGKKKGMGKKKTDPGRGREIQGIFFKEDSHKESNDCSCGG
In words: Tyrosine kinase inhibition assay. It is filed as biochemical. Conditions: single concentration 1.0 μM, read-out: percent inhibition. The procedure: (§1) Tyrosine kinase inhibition assays were performed at ThermoFisher Life Technologies (Madison, WI, USA) using standard protocols (SelectScreen Biochemical Profiling Service, Thermo Fisher Scientific). ATP concentrations used were at the apparent Km. Test compounds were screened in 1% dimethylsulffoxide (DMSO) (final concentration) in the well. For 10-point titrations, 3-fold serial dilutions were conducted from the starting concentration of […]. All Peptide/Kinase Mixtures were diluted to a 2× working concentration in the appropriate Kinase Buffer. All ATP Solutions were diluted to a 4× working concentration in Kinase Buffer (50 mM HEPES pH 7.5, 0.01% BRIJ-35, 10 mM MgCl2, 1 mM EGTA). The apparent ATP Km was previously determined using a Z′-LYTE assay. The Development Reagent was diluted in Development Buffer.
The inhibition activities of compounds were determined in biochemical assays using single concentration (1.0 μM) measurements. The results were provided as percent inhibition values. […] 99 different tyrosine kinases were used.

A further assay concerns UO-31. Description: NCI-60 screen (SRB). The note with it: Homo sapiens; UO-31, Renal Cancer. Format: cell-based. The procedure:
(§2) The human tumor cell lines of the cancer screening panel are grown in RPMI 1640 medium containing 5% fetal bovine serum and 2 mM L-glutamine. For a typical screening experiment, cells are inoculated into 96 well microtiter plates in 100 μL at plating densities ranging from 5,000 to 40,000 cells/well depending on the doubling time of individual cell lines. After cell inoculation, the microtiter plates are incubated at 37° C., 5% CO2, 95% air and 100% relative humidity for 24 h prior to addition of experimental drugs. After 24 h, two plates of each cell line are fixed in situ with TCA, to represent a measurement of the cell population for each cell line at the time of drug addition (Tz). Experimental drugs are solubilized in dimethyl sulfoxide at 400-fold the desired final maximum test concentration and stored frozen prior to use. At the time of drug addition, an aliquot of frozen concentrate is thawed and diluted to twice the desired final maximum test concentration with complete medium containing 50 µg/ml gentamicin. An additional four, 10-fold or M log serial dilutions are made to provide a total of five drug concentrations plus control. Aliquots of 100 μl of these different drug dilutions are added to the appropriate microtiter wells already containing 100 μl of medium, resulting in the required final drug concentrations. Following drug addition, the plates are incubated for an additional 48 h at 37° C., 5% CO2, 95% air, and 100% relative humidity. For adherent cells, the assay is terminated by the addition of cold TCA. Cells are fixed in situ by the gentle addition of 50 μl of cold 50% (w/v) TCA (final concentration, 10% TCA) and incubated for 60 minutes at 4° C. The supernatant is discarded, and the plates are washed five times with tap water and air dried. Sulforhodamine B (SRB) solution (100 l) at 0.4% (w/v) in 1% acetic acid is added to each well, and plates are incubated for 10 minutes at room temperature. After staining, unbound dye is removed by washing five times with 1% acetic acid and the plates are air dried. Bound stain is subsequently solubilized with 10 mM trizma base, and the absorbance is read on an automated plate reader at a wavelength of 515 nm. For suspension cells, the methodology is the same except that the assay is terminated by fixing settled cells at the bottom of the wells by gently adding 50 μl of 80% TCA (final concentration, 16% TCA).

The next assay deals with MDA-MB-231/ATCC. In words: NCI-60 screen (SRB). It is filed as cell-based. Conditions: Homo sapiens, Breast Cancer. As for the experimental part:
as §2

A further assay concerns SF-539. Description: NCI-60 screen (SRB). The note with it: Homo sapiens; SF-539, CNS Cancer. Format: cell-based. The procedure: as §2
For the next assay, the system named is OVCAR-4. Description: NCI-60 screen (SRB). It is filed as cell-based. The note with it: Homo sapiens; OVCAR-4, Ovarian Cancer. The procedure: as §2
A further assay concerns the target KIT (Homo sapiens, UniProt P10721). Description: Tyrosine kinase inhibition assay. Conditions: single concentration 1.0 μM, read-out: percent inhibition. Format: biochemical. As for the experimental part: as §1
The inhibition activities of compounds were determined in biochemical assays using single concentration (1.0 μM) measurements. The results were provided as percent inhibition values. […]

[1] abbreviates: FIG. 2E, oral once daily, Cabozantinib 30 mg/kg, Cbo-02 30 mg/kg, Chidamide-K30 50 mg/kg.
[2] abbreviates: FIG. 3E, oral 12 days, Cabozantinib 30 mg/kg, Cbo-20 30 mg/kg, GNTbm-38-K30 40 mg/kg.
[3] abbreviates: FIG. 6E, Cbo-23 30 mg/kg, Cabozantinib 30 mg/kg, GNTbm-38-K30 20 mg/kg.
Setting [4] is: FIG. 6F, Cbo-23 30 mg/kg, Cabozantinib 30 mg/kg, GNTbm-38-K30 20 mg/kg.
Setting [5] is: FIG. 5E, Cbo-23 30 mg/kg, Regorafenib 30 mg/kg, GNTbm-38-K30 20 mg/kg in combination, 5 mg/kg alone.

Chain of KIT (P10721 26-976): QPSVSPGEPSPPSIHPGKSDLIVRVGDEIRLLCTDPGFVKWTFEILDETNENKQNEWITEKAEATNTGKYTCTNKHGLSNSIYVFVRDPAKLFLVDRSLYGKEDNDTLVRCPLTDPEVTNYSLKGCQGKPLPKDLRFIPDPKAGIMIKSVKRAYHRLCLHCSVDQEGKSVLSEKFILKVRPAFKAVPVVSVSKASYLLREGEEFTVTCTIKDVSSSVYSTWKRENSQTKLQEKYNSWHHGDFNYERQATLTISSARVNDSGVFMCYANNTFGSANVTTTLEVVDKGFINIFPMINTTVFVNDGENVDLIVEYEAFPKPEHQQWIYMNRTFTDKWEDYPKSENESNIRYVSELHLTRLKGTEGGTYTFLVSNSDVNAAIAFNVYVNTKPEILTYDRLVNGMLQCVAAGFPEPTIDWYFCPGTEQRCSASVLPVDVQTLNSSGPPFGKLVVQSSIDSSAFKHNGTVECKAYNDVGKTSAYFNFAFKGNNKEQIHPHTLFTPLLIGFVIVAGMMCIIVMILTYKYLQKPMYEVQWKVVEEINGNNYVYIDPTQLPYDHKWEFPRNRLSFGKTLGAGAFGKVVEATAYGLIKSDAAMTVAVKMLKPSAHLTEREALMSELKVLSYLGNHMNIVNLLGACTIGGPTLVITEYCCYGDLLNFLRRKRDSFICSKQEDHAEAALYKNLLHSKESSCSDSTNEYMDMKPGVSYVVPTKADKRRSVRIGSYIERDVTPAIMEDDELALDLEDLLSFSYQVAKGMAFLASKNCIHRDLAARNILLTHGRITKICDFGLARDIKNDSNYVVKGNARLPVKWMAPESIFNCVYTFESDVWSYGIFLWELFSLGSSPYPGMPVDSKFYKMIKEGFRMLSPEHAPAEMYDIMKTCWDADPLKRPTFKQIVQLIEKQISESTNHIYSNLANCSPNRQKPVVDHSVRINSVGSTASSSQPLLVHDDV
Experimental for CT26 tumor: LLC1 was grown at 37° C. under humidified air supplemented with CO2 in DMEM (#10-013-CM, Corning®) containing 10% heat inactivated fetal calf serum, and 1× concentration of MycoZap Antibiotics. CT26 was grown at 37° C. under humidified air supplemented with CO2 in RPMI1640 (cat. #10-040-CM, Corning®) containing 10% heat inactivated fetal calf serum, and 1× concentration of MycoZap Antibiotics. After the cancer cell culture was completed, it was implanted (1×10^6 cells/mouse) into the back of the mouse for growth.
Six- to eight-week-old male Balb/c mice (National Laboratory Animal Center, Taiwan) were used for all animal experiments. […] Tumors were allowed to grow for 10-12 days (tumor size about 250-300 mm^3) before randomization and treatment. The tumor volume of the mice was measured once every three or four days (twice/week). Animals were euthanized when tumors reached more than 3000 mm^3 in diameter. […] Relapse/recurrence was defined as when tumor growth reappeared and tumor size reached at least 5 fold in mice with CR or PR response after secondary tumor assessment. In this study, we defined Complete Response (CR, <0.5 time tumor growth in the tumor bearing mice at tumor assessment after the end of treatment); Partial Response (PR, tumor size ≥0.5 time tumor growth, but <1 time tumor growth in the tumor bearing mice at tumor assessment after the end of treatment); Stable Disease (SD, ≥1 time tumor growth, but <5 times tumor growth in the tumor bearing mice at tumor assessment after the end of treatment); and Progressive Disease (PD, ≥5 times tumor growth in the tumor bearing mice at tumor assessment after the end of treatment) for the evaluation of treatment efficacy.

Regarding `COc1cc2nccc(Oc3ccc(NC(=O)C4(C(=O)Nc5ccc(F)cc5)CC4)cc3)c2cc1OC` [Cabozantinib, reference compound], the ORR in the assay with CT26 tumor (setting [1]) is 0%; in the assay with CT26 tumor (setting [2]), 0%; with CT26 tumor (FIG. 4D, Cabozantinib 30 mg/kg, Cbo-22 30 mg/kg, GNTbm-38-K30 40 mg/kg) it was 0%; in the assay on CT26 tumor (setting [3]), 44%. Also, the figures for the “CR (number of mice)” value with CT26 tumor (setting [2]) and with CT26 tumor (setting [3]) were 0 and 3, respectively. Also, the “PD (number of mice)” value in the assay on CT26 tumor (setting [2]) is on record as 5; in the assay on CT26 tumor (setting [3]) it was 2. Besides, the “PR (number of mice)” value with CT26 tumor (setting [2]) was found to be 0; in the assay on CT26 tumor (setting [3]) it was 1. Moreover, the “Survival Rate” value in the assay with CT26 tumor (FIG. 3F, Cabozantinib 30 mg/kg, Cbo-20 30 mg/kg, GNTbm-38-K30 40 mg/kg) is 0%; with CT26 tumor (FIG. 4E, Cabozantinib 30 mg/kg, Cbo-22 30 mg/kg, GNTbm-38-K30 40 mg/kg), 0%; in the assay on CT26 tumor (setting [4]), 33%.

Take `COc1cc2nccc(Oc3ccc(NC(=O)C4(NC(=O)c5ccc(F)cc5)CC4)cc3F)c2cc1OC` [Cbo-02, N-(1-((4-((6,7-diMethoxyquinolin-4-yl)oxy)-3-fluorophenyl)carbamoyl)cyclopropyl)-4-fluorobenzamide]: the inhibition at 1 µM at EPHB2 worked out at 13%; on KIT, 33%. The GI50 in the assay on UO-31 amounted to 2590 nM; in the assay on MDA-MB-231/ATCC it was 1740 nM; with SF-539, 1690 nM; with OVCAR-4 it was 2380 nM. Further, the ORR in the assay on CT26 tumor (setting [1]) is listed as 10%.

Turning to `COc1cc2nccc(Oc3ccc(NC(=O)C4(NC(=O)c5ccc(F)cc5)CC4)cc3F)c2cc1Oc1ccc(N)cc1F` [Cbo-10], the inhibition at 1 µM was found to be 64% at EPHB2 and 48% on KIT. The concentration for 50% growth inhibition (GI50) was 1810 nM with UO-31, 4430 nM in the assay with MDA-MB-231/ATCC, more than 100000 nM in the assay with SF-539 and more than 100000 nM with OVCAR-4.

`COc1cc2nccc(Oc3ccc(NC(=O)C4(NC(=O)c5ccc(F)cc5)CC4)cc3F)c2cc1Oc1c(F)cc(N)cc1F` [Cbo-14]: the inhibition at 1 µM at EPHB2 stood at 77%; on KIT, 45%.

`COc1cc2nccc(Oc3ccc(NC(=O)C4(C(=O)Nc5ccc(F)cc5)CC4)cc3F)c2cc1Oc1ccc(N)cc1F` [Cbo-23]: the inhibition at 1 µM amounted to 100% at EPHB2 and 51% at KIT. In addition, the 50% growth inhibitory concentration (GI50) was found to be 316 nM with UO-31, 981 nM in the assay with MDA-MB-231/ATCC, 179 nM in the assay on SF-539 and 2580 nM in the assay on OVCAR-4. Also, the “CR (number of mice)” value with CT26 tumor (setting [5]) came out at 2; in the assay on CT26 tumor (setting [3]) it was 3. The ORR in the assay on CT26 tumor (setting [5]) is on record as 22%; in the assay on CT26 tumor (setting [3]), 30%. The “PD (number of mice)” value in the assay on CT26 tumor (setting [5]) and with CT26 tumor (setting [3]) was 7 throughout. Further, the “PR (number of mice)” value with CT26 tumor (setting [5]) and in the assay with CT26 tumor (setting [3]) was 0 in each case. Further, the “Survival Rate” value turned out to be 11% with CT26 tumor (FIG. 5F, Cbo-23 30 mg/kg, Regorafenib 30 mg/kg, GNTbm-38-K30 20 mg/kg in combination, 5 mg/kg alone) and 20% with CT26 tumor (setting [4]). Also, the recurrence rate in the assay on CT26 tumor (FIG. 5G, day 60, Cbo-23 30 mg/kg, Regorafenib 30 mg/kg, GNTbm-38-K30 20 mg/kg in combination, 5 mg/kg alone) was determined as 50%.
